Experimental data taken from patent publication US6444681B1, “Methods and compositions for treating Raynaud's Phenomenon and scleroderma” (The Ohio State University Research Foundation, priority 2000, dated 2002).
Where two headings read alike, the source gives them in different places.

How the values were obtained:
[1] = target: T1, α-2A (Homo sapiens, UniProt P08913); details: cited from earlier work
T1 sequence (P08913 1-465): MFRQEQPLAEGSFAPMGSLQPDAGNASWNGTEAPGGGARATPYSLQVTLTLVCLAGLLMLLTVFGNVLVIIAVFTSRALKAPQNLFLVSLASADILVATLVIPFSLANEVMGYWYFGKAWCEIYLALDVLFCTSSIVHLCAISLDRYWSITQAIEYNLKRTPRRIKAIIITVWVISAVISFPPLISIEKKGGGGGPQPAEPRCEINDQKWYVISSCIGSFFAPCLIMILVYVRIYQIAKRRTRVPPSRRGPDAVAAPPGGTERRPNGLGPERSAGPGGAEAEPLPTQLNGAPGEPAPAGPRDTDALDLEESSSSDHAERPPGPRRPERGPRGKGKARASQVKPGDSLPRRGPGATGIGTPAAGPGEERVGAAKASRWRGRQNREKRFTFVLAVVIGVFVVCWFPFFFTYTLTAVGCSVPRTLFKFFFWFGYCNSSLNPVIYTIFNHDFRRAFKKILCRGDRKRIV

[2] = target: Mouse Tail Artery; experiment: Antagonism of UK 14,304-induced vasoconstriction in isolated pressurised distal mouse tail artery; assay type: cell-based; details: for Kd: versus UK 14,304, distal tail artery; for effect on vasoconstrictor response to UK 14,304: cold (28° C.), ARC 0239 50 nM, MK912 3×10^−10M; for effect on vasoconstrictor response to UK 14,304 / effect on vasoconstriction to the α2-AR agonist UK 14,304: BRL 44408 100 and 1000 nM; for effect on vasoconstriction to the α2-AR agonist UK 14,304: warm temperatures (37° C.), ARC 239 50 nM, MK 912 0.3 nM; for −log KD: n=4
Description: Male mice (C57BL6) were euthanized by CO2 asphyxiation. Proximal and/or distal segments of tail artery were then rapidly removed and placed in cold Krebs-Ringer bicarbonate solution (in mM): 118.3 NaCl, 4.7 KCl, 1.2 MgSO4, 1.2 KH2PO4, 2.5 CaCl2, 25.0 NaHCO3, 11. glucose (control solution). The small arteries were cannulated at both ends with glass micropipettes, secured using 12-0 nylon monofilament suture and placed in a microvascuiar chamber (Living Systems, Burlington, Vt.). The arteries were maintained at a constant transmural pressure of 60 mmHg in the absence of flow. The chamber was superfused with control solution and maintained at 37° C., pH 7.4, and gassed with 16% O2-5% CO2-balance N2. The chamber was placed on the stage of an inverted microscope (X20, Nikon TMS-F, Japan) connected to a video camera (Panasonic, CCTV camera, Japan). The vessel image was projected onto a video monitor and the internal diameter continuously determined by a video dimension analyzer (Living Systems Instrumentation, Burlington Vt.) and monitored using a BIOPAC (Santa Barbara, Calif.) data acquisition system (Gateway Dimensions Pentium Computer).
Small arteries were allowed to equilibrate for 30-40 min at a transmural pressure (PTM) of 60 mmHg before addition of α1 and α2-AR agonists and antagonists. Concentration-effect curves to the selective α1-AR agonist, phenylephrine, or the selective α2-AR agonist, UK 14,304 (brimonidine, 5-bromo-N-(4,5-dihydro-1H-imidazol-2-yl)-6-quinoxalinamine) were generated by increasing the concentration of the agonists in half-log increments, once the constriction to the previous concentration had stabilized. Following completion of the concentration-effect curve, the influence of the agonists was terminated by repeatedly exchanging the buffer solution and allowing the artery to return to its stable baseline level.
To evaluate the effect of selective α2-AR antagonists on vasoconstriction, concentration-effect curves to UK 14,304 were determined under control conditions and in the presence of the selective α2A-AR antagonist, BRL 44408 (100 and 1000 nM), the selective α2B-AR antagonist ARC 0239 (50 nM) or the selective α2C-AR antagonist MK 912 (0.3 nM) (Table 1). When these receptor antagonists were used, the preparations were incubated for 30 min with the drugs prior to, and also during, exposure of the arteries to the agonists. When analyzing the influence of cold on α-AR responsiveness, the temperature of the superfusate was decreased to 28° C. for 30 min prior to commencing a concentration effect curve to the constrictor agonists. This provides sufficient time for the effect of cold on adrenergic reactivity to stabilize.
Vasomotor responses were expressed as a percentage change in internal diameter (ID) prior to administrating the agent. Because of the phasic behavior of the vasomotion in distal. tail arteries, the signal was electronically averaged (BIOPAC software, smoothing factor of 2000) in order to obtain diameter measurements. Functional data is expressed as means±SEM for n number of experiments, where n equals the number of animals from which blood vessels were studied. Antagonist dissociation constants (KD) were determined either from Arunlakshana and Schild plots or according to the formula: KD=[Ant]/(CR-1), where [Ant] is the concentration of antagonist, and CR the ratio of agonist-concentrations producing equal responses in the presence and absence of the antagonist. […] Statistical evaluation of the data was performed by Student's t-test for either paired or unpaired observations. When more than two means were compared, analysis of variance was used. If a significant F value was found, Scheffe's test for multiple comparisons was employed to identify differences among groups. Values were considered to be statistically different when P was less than 0.05.

[3] = target: T2, α-2B (Homo sapiens, UniProt P18089); details: cited from earlier work
T2 sequence (P18089 1-450): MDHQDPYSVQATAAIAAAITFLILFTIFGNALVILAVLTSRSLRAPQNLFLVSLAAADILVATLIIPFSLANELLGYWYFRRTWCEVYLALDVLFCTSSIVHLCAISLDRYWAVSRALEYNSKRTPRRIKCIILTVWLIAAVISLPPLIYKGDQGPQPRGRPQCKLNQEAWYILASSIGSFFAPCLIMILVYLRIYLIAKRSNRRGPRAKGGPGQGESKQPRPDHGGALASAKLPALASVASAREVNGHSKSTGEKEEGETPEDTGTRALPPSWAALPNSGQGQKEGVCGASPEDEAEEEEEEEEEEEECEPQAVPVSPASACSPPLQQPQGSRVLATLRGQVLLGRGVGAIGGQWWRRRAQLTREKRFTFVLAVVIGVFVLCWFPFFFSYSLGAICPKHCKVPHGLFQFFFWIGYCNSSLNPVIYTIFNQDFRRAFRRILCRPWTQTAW

[4] = target: T3, α-2C (Homo sapiens, UniProt P18825); details: cited from earlier work
T3 sequence (P18825 1-462): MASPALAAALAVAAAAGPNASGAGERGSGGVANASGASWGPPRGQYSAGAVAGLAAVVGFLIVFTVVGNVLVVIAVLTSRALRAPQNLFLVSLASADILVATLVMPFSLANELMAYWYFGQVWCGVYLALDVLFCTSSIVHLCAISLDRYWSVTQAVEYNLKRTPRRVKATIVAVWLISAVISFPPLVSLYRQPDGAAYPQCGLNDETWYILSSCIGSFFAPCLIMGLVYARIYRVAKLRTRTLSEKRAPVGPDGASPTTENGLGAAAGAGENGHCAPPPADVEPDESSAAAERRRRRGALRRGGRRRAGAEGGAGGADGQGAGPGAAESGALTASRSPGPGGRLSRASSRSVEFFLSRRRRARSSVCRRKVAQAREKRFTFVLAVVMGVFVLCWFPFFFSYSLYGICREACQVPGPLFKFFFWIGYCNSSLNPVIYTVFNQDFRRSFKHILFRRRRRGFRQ

[5] = system: control and SSc arterioles; experiment: Agonist-induced vasoconstriction in human dermal arterioles from control and SSc subjects; assay type: cell-based; details: for constriction: 1 μM of the agonist; for Emax: Homo sapiens
Description: Skin biopsies (6 mm punch) were obtained from the same location on the medial aspect on the upper arm of patients and control subjects. Eleven patients with diffuse cutaneous SSc were studied: nine female and two male. Their average age was 49 years old (range 33 to 69) and they had SSc for an average of 4 years (range 1 to 9 years from first physician diagnosis of SSc). SSc patients were recruited from the Johns Hopkins and University of Maryland Scleroderma Center. All patients met the American College of Rheumatology criteria for a diagnosis of SSc. Biopsy of the skin was performed in the upper arm in an area considered to have normal skin thickness determined by clinical palpation (clinically-uninvolved skin). Patients with overlap syndromes (e.g. lupus) were excluded. Patient medications varied between individuals: anti-inflammatory /immunosuppressant, 4 patients on prednisone, 1 on methotrexate, 1 on cyclophosphamide, and 1 on D-penicillamine; gastrointestinal, 5 on omeprazole, 3 on cisapride, 2 on ranitidine, 1 on lansoprazole; angiotensin converting enzyme inhibitors, 3 on enalapril, 1 on lisinopril; angiotensin receptor antagonists, 1 on losartin, 1 on valsartin; calcium antagonists, 2 on nifedipine, 1 on verapamil, 1 on amlodipine, 1 on diltiazem; α1-adrenergic receptor antagonists, 1 on terazosin. Vasoconstrictor responses to the α1-adrenergic receptor (α1-AR) agonist, phenylephrine, were not included for the patient receiving terazosin. Eight normal subjects were analyzed: six female and two males with an average age of 50 years old (range 38 to 62). All patients and volunteers gave informed consent and the study was approved by the Johns Hopkins University human subjects IRB committee.
Arterioles were dissected from the deep dermal plexus of the biopsies and any side branches tied. […] The arterioles were cannulated with glass micropipettes and placed in a microvessel chamber as previously describe. The arterioles were maintained in no-flow state at a constant transmural pressure (PTM)of 40 mmHg. The chamber was superfused with buffer solution (37° C., pH 7.4, gassed with 16% O2-5% CO2-balance N2) and placed on stage of an inverted microscope for continuous monitoring of internal diameter using a video camera and video dimension analyzer.
Vasoconstriction was assessed in response to: i) KCl (15 to 60 mM), ii) the selective α1-AR agonist, phenylephrine (0.01 to 1 μM) (SIGMA, St Louis, Mo.), or iii) the selective α2-AR agonist, UK 14,304 (1 to 100 nM) (brimonidine, 5-bromo-N-(4,5-dihydro-1H-imidazol-2-yl)-6-quinoxalinamine, RBI, Natick, Mass.). Responses to UK 14,304 were also evaluated following denudation of the endothelium, achieved by carefully placing a wire (70μdiameter) through the vessel lumen. Endothelium-removal was confirmed by histology and by loss of response to the endothelial stimuli acetylcholine or bradykinin.
Responses were expressed as a percentage change in baseline diameter. Data is expressed as means±SEM for n number of experiments, where n equals the number of subjects from which blood vessels were studied. Concentration-effect curves were analyzed by comparing: i) maximal responses (vasoconstriction or dilatation), and ii) the area under the curve (AUC). Statistical evaluation of the data was performed using paired or unpaired t-tests. Responses were considered to be statistically different when P was less than 0.05.

[6] = system: mouse tail arteries; experiment: Agonist-induced vasoconstriction in isolated mouse tail artery, with influence of cold; assay type: cell-based; details: for constriction of proximal and distal segments of mouse tail arteries: 10^−9 to 3×10^−7M, 37° C.; for influence of cold on the constrictor response to the agonist: distal segments, 28° C. versus 37° C.
Description: Small arteries were allowed to equilibrate for 30-40 min at a transmural pressure (PTM) of 60 mmHg before addition of α1 and α2-AR agonists and antagonists. […] Following completion of the concentration-effect curve, the influence of the agonists was terminated by repeatedly exchanging the buffer solution and allowing the artery to return to its stable baseline level.
Vasomotor responses were expressed as a percentage change in internal diameter (ID) prior to administrating the agent. Because of the phasic behavior of the vasomotion in distal. tail arteries, the signal was electronically averaged (BIOPAC software, smoothing factor of 2000) in order to obtain diameter measurements. Functional data is expressed as means±SEM for n number of experiments, where n equals the number of animals from which blood vessels were studied. Antagonist dissociation constants (KD) were determined either from Arunlakshana and Schild plots or according to the formula: KD=[Ant]/(CR-1), where [Ant] is the concentration of antagonist, and CR the ratio of agonist-concentrations producing equal responses in the presence and absence of the antagonist. […] Statistical evaluation of the data was performed by Student's t-test for either paired or unpaired observations. […]

[7] = 28° C. (cold), read-out: KD Mouse Tail Artery 28° C.
[8] = 37° C. (warm), read-out: KD Mouse Tail Artery 37° C.

SMILES | Kd [1] [nM] | Kd [2, 7] [nM] | Kd [2, 8] [nM] | expected shift in concentration-effect curves generated by α2B-AR stimulation ([2]; based on the Table 1 KD, antagonist at 50 nM) [fold] | effect on vasoconstrictor response to UK 14,304 [2] | effect on vasoconstriction to the α2-AR agonist UK 14,304 [2] | Kd [3] [nM] | Kd [4] [nM] | −log KD ([2]; 28° C. (cold)) | effect on cold-induced amplification of the α2-AR response ([2]; 28° C. versus 37° C., UK 14,304) | −log KD ([2]; 37° C., Arunlakshana and Schild plot) | constriction ([5]; SSc arterioles) [%] | constriction ([5]; control arterioles) [%] | constriction of proximal and distal segments of mouse tail arteries [6] | influence of cold on the constrictor response to the agonist [6] | Emax ([5]; SSc arterioles with endothelium, 1-100 nM, read-out: maximal response to the agonist (constriction)) [%] | Emax ([5]; control arterioles with endothelium, 1-100 nM, read-out: maximal response to the agonist (constriction)) [%] | Emax ([5]; endothelium-denuded SSc arterioles, read-out: maximal response (constriction)) [%] | Emax ([5]; endothelium-denuded control arterioles, read-out: maximal response (constriction)) [%]
COc1ccccc1N1CCN(CCN2C(=O)c3ccccc3C(C)(C)C2=O)CC1 [ARC 239] | 256 | > 50 | > 50 | ~10 | not inhibited | not inhibited | 4.6 | 51 |  |  |  |  |  |  |  |  |  |  | 
CC1c2ccccc2CN1CC1=NCCN1 (stereo not shown) [BRL 44408] | 13 | 29 | 20 |  | reduced | inhibited | 174 | 187 | 7.54 ± 0.10 | did not reduce | 7.69±0.13 |  |  |  |  |  |  |  | 
CNC[C@H](O)c1cccc(O)c1 [phenylephrine] |  |  |  |  |  |  |  |  |  |  |  | 45±7 | 45±8 | caused concentration-dependent constriction | did not affect |  |  |  | 
Brc1c(NC2=NCCN2)ccc2nccnc12 [UK 14,304, 5-bromo-N-(4,5-dihydro-1H-imidazol-2-yl)-6-quinoxalinamine] |  |  |  |  |  |  |  |  |  |  |  |  |  | caused concentration-dependent constriction | dramatically and reversibly increased | 67 ± 4 | 25 ± 5 | 67 ± 10 | 25 ± 7
